# Patent US6548242B2, “Process for the sterilization of biological compositions and the product thereby” (priority 1990, dated 2003)
# Values joined by “and” are separate entries in the source; they are usually repeats but may differ in a detail not shown here. Equal entries are not always repeated. Where two headings read alike, the source gives them in different places.
# Assays:
# [1] = tested on: cell-free vesicular stomatitis virus (VSV); format: cell-based
# bacteriophage M13 = format: cell-based
# platelets = assay: Platelet aggregation in response to collagen after treatment of platelet concentrate; format: cell-based; settings: for Aggregation Response % Control / Agqregation Response % control / aggregation response to collagen: platelet conc.; for Aggregation Response % Control / Agqregation Response % control: 25 μg/ml AMT; for aggregation response to collagen: 100 μg/ml AMT, 90 min UVA; for % Untreated Control - Extent of Aggregation Response to Collagen, untreated / % Untreated Control - Rate of Aggregation Response to Collagen, untreated: flavonoid present, no AMT/UVA treatment
# [2] = tested on: cell-free vesicular stomatitis virus (VSV); settings: cited from earlier work
# [3] = tested on: encephalomyocarditis virus (EMC); format: cell-based
# cell-associated VSV = format: cell-based, vesicular stomatitis virus
# RBCCs = assay: Extracellular (plasma) potassium of stored RBCCs; settings: RBCC, 6.5 μM AlPcS4 + 44 J/cm^2 visible light + 4 mM GSH, 2 days
# [4] = 25 μg/ml AMT and 90 minutes of UVA, no flavonoid
# [5] = 7.5 mW/cm^2 UVA 30 min, quencher 2 mM
# [6] = 7.5 mW/cm^2 UVA 30 min, quencher 4 mM
# [7] = 7.5 mW/cm^2 UVA 30 min, quencher 10 mM
# [8] = 7.5 mW/cm^2 UVA 60 min, quencher 2 mM
# [9] = 7.5 mW/cm^2 UVA 60 min, quencher 4 mM
# [10] = 7.5 mW/cm^2 UVA 90 min, quencher 2 mM
# [11] = 7.5 mW/cm^2 UVA 90 min, quencher 4 mM
# [12] = 7.5 mW/cm^2 UVA 30 min, quencher 50 mM
# [13] = 7.5 mW/cm^2 UVA 60 min, quencher 10 mM
# [14] = 7.5 mW/cm^2 UVA 60 min, quencher 50 mM
# [15] = 11 mW/cm^2 UVA 30 min, quencher 10 mM
# [16] = 11 mW/cm^2 UVA 30 min, quencher 2 mM
# [17] = 11 mW/cm^2 UVA 60 min, quencher 2 mM
# [18] = 11 mW/cm^2 UVA 90 min, quencher 2 mM
# [19] = 25 μg/ml AMT and 90 minutes of UVA in presence of flavonoid, overnight storage
molecule,measurement,setting,value
"Cc1oc2c(C)c3oc(=O)cc(C)c3cc2c1CN [AMT, 4′-aminomethyl-4,5′,8-trimethylpsoralen]",LOG10 VIRUS KILL VSV,[1],≧6 LOG10
same,inactivation of cell-free VSV,[1],completely inactivated
same,LOG10 VIRUS KILL M13,bacteriophage M13,3 LOG10 and 5 LOG10
same,inactivation of bacteriophage M13,bacteriophage M13,at least 4 log 10
same,"% Untreated Control - Extent of Aggregation Response to Collagen, treated",platelets; [4],44 % Untreated Control
same,"% Untreated Control - Rate of Aggregation Response to Collagen, treated",platelets; [4],24 % Untreated Control
same,agg response,"platelets; Platelet Conc., 50 μg/ml AMT + 57 J/cm^2 UVA, quencher none",≤ 30%
same,Aggregation Response % Control,"platelets; 7.5 mW/cm^2 UVA 60 min, no quencher",52 % Control
same,Aggregation Response % Control,"platelets; 7.5 mW/cm^2 UVA 90 min, no quencher",35 % Control
same,Agqregation Response % control,"platelets; 11 mW/cm^2 UVA 30 min, no quencher",75 % control
same,Agqregation Response % control,"platelets; 11 mW/cm^2 UVA 60 min, no quencher",52 % control
same,aggregation response to collagen,platelets; no quencher,no response at all
same,inactivation of cell-free VSV,[2],≥ 6.0 log10
"O=C1O[C@H]([C@@H](O)CO)C(O)=C1O [Ascorbate, ascorbate]",Virus Kill (log10) VSV,[1],≧6.5 log10
same,Virus Kill (log10) M13,bacteriophage M13,4.7 log10
same,Virus Kill (log10) EMC,[3],≧7.7 log10
"N[C@@H](CCC(=O)N[C@@H](CS)C(=O)NCC(=O)O)C(=O)O [Glutathione, glutathione]",Virus Inactivation (log10) Cell-Free VSV,[1],≧6.0 log10
same,Virus Kill (log10) M13,bacteriophage M13,4.4 log10
same,Aggregation Response % Control,platelets; [5],80 % Control
same,Aggregation Response % Control,platelets; [6],80 % Control
same,Aggregation Response % Control,platelets; [7],75 % Control
same,Aggregation Response % Control,platelets; [8],60 % Control
same,Aggregation Response % Control,platelets; [9],55 % Control
same,Aggregation Response % Control,platelets; [10],40 % Control
same,Aggregation Response % Control,platelets; [11],25 % Control
"OCC(O)CO [Glycerol, glycerol]",Virus Kill (log10) M13,bacteriophage M13,6.6 log10
same,Aggregation Response % Control,platelets; [5],90 % Control
same,Aggregation Response % Control,platelets; [6],95 % Control
same,Aggregation Response % Control,platelets; [7],80 % Control
same,Aggregation Response % Control,platelets; [12],85 % Control
same,Aggregation Response % Control,platelets; [8],50 % Control
same,Aggregation Response % Control,platelets; [9],55 % Control
same,Aggregation Response % Control,platelets; [13],50 % Control
same,Aggregation Response % Control,platelets; [14],50 % Control
same,Aggregation Response % Control,platelets; [11],35 % Control
"N[C@@H](Cc1c[nH]cn1)C(=O)O [Histidine, histidine]",Virus Kill (log10) Cell-free VSV,[1],5.1 log10 and 4.8 log10
same,Virus Kill (log10) M13,bacteriophage M13,4.0 log10
same,Agqregation Response % control,"platelets; 11 mW/cm^2 UVA 30 min, quencher 5 mM",75 % control
same,Agqregation Response % control,platelets; [15],65 % control
same,Agqregation Response % control,"platelets; 11 mW/cm^2 UVA 60 min, quencher 5 mM",55 % control
same,Agqregation Response % control,"platelets; 11 mW/cm^2 UVA 90 min, quencher 5 mM",35 % control
"CN(C)c1ccc2nc3ccc(=[N+](C)C)cc-3sc2c1 [M8, methylene blue]",LOG10 VIRUS KILL VSV,[1],≧5 LOG10
"OC[C@@H](O)[C@@H](O)[C@H](O)[C@H](O)CO [Mannitol, mannitol]",Virus Kill (log10) M13,bacteriophage M13,6.6 log10
same,Aggregation Response % Control,platelets; [5],95 % Control
same,Aggregation Response % Control,platelets; [6],95 % Control
same,Aggregation Response % Control,platelets; [7],91 % Control
same,Aggregation Response % Control,platelets; [12],85 % Control
same,Aggregation Response % Control,platelets; [8],60 % Control
same,Aggregation Response % Control,platelets; [9],58 % Control
same,Aggregation Response % Control,platelets; [13],56 % Control
same,Aggregation Response % Control,platelets; [14],55 % Control
same,Aggregation Response % Control,platelets; [10],32 % Control
same,Aggregation Response % Control,"platelets; 7.5 mW/cm^2 UVA 90 min, quencher 50 mM",30 % Control
same,aggregation response to collagen,platelets; 2 mM mannitol,no response at all
"N[C@@H](Cc1c[nH]c2ccccc12)C(=O)O [Tryptophan, tryptophan]",Agqregation Response % control,platelets; [16],70 % control
same,Agqregation Response % control,"platelets; 11 mW/cm^2 UVA 30 min, quencher 4 mM",60 % control
same,Agqregation Response % control,platelets; [15],45 % control
same,Agqregation Response % control,platelets; [17],50 % control
same,Agqregation Response % control,"platelets; 11 mW/cm^2 UVA 60 min, quencher 4 mM",45 % control
same,Agqregation Response % control,"platelets; 11 mW/cm^2 UVA 60 min, quencher 10 mM",20 % control
same,Agqregation Response % control,platelets; [18],30 % control
same,Agqregation Response % control,"platelets; 11 mW/cm^2 UVA 90 min, quencher 4 mM",20 % control
same,Agqregation Response % control,"platelets; 11 mW/cm^2 UVA 90 min, quencher 10 mM",0 % control
O=c1cc(-c2ccccc2)oc2cc(O)cc(O)c12 [chrysin],"% Untreated Control - Extent of Aggregation Response to Collagen, treated",platelets; [19],90 % Untreated Control
same,"% Untreated Control - Rate of Aggregation Response to Collagen, treated",platelets; [19],85 % Untreated Control
same,"% Untreated Control - Extent of Aggregation Response to Collagen, untreated",platelets; overnight storage,100/100 % Untreated Control
same,"% Untreated Control - Rate of Aggregation Response to Collagen, untreated",platelets; overnight storage,100/100 % Untreated Control
COc1ccc([C@@H]2CC(=O)c3c(O)cc(O[C@@H]4O[C@H](CO[C@@H]5O[C@@H](C)[C@H](O)[C@@H](O)[C@H]5O)[C@@H](O)[C@H](O)[C@H]4O)cc3O2)cc1O [hesperidin],"% Untreated Control - Extent of Aggregation Response to Collagen, treated",platelets; [19],100 % Untreated Control
same,"% Untreated Control - Rate of Aggregation Response to Collagen, treated",platelets; [19],86 % Untreated Control
same,"% Untreated Control - Extent of Aggregation Response to Collagen, untreated",platelets; overnight storage,98 % Untreated Control
same,"% Untreated Control - Rate of Aggregation Response to Collagen, untreated",platelets; overnight storage,90 % Untreated Control
C[C@@H]1O[C@@H](O[C@H]2[C@H](Oc3cc(O)c4c(c3)O[C@H](c3ccc(O)cc3)CC4=O)O[C@H](CO)[C@@H](O)[C@@H]2O)[C@H](O)[C@H](O)[C@H]1O [naringin],"% Untreated Control - Extent of Aggregation Response to Collagen, treated",platelets; [19],78 % Untreated Control
same,"% Untreated Control - Rate of Aggregation Response to Collagen, treated",platelets; [19],61 % Untreated Control
same,"% Untreated Control - Extent of Aggregation Response to Collagen, untreated",platelets; overnight storage,90 % Untreated Control
same,"% Untreated Control - Rate of Aggregation Response to Collagen, untreated",platelets; overnight storage,83 % Untreated Control
O=c1c(O)c(-c2ccc(O)c(O)c2)oc2cc(O)cc(O)c12 [quercetin],inactivation of cell-associated VSV,cell-associated VSV,~6 log10
same,Virus Kill (log10) VSV,[1],≧6.5 log10
same,Virus Kill (log10) M13,bacteriophage M13,5.0 log10
same,Virus Kill (log10) EMC,[3],≧7.7 log10
same,"% Untreated Control - Extent of Aggregation Response to Collagen, treated",platelets; [19],98/98 % Untreated Control
same,"% Untreated Control - Rate of Aggregation Response to Collagen, treated",platelets; [19],98/98 % Untreated Control
same,"% Untreated Control - Extent of Aggregation Response to Collagen, untreated",platelets; overnight storage,100/100 % Untreated Control
same,"% Untreated Control - Rate of Aggregation Response to Collagen, untreated",platelets; overnight storage,100/100 % Untreated Control
Cc1c(C)c2c(c(C)c1OP(=O)(O)O)CC[C@@](C)(CCC[C@H](C)CCC[C@H](C)CCCC(C)C)O2 [α-tocopherol phosphate],Agqregation Response % control,"platelets; 11 mW/cm^2 UVA 30 min, quencher 0.5 mM",76 % control
same,Agqregation Response % control,"platelets; 11 mW/cm^2 UVA 30 min, quencher 1.0 mM",75 % control
same,Agqregation Response % control,platelets; [16],70 % control
same,Agqregation Response % control,"platelets; 11 mW/cm^2 UVA 60 min, quencher 0.5 mM",55 % control
same,Agqregation Response % control,"platelets; 11 mW/cm^2 UVA 60 min, quencher 1.0 mM",60 % control
same,Agqregation Response % control,platelets; [17],50 % control
same,Agqregation Response % control,"platelets; 11 mW/cm^2 UVA 90 min, quencher 0.5 mM",35 % control
same,Agqregation Response % control,"platelets; 11 mW/cm^2 UVA 90 min, quencher 1.0 mM",40 % control
same,Agqregation Response % control,platelets; [18],30 % control
Superoxide Dismutase,Virus Inactivation (log10) Cell-Free VSV,[1],≧6.0 log10
same,Virus Kill (log10) M13,bacteriophage M13,3.9 log10
same,Aggregation Response % Control,"platelets; 7.5 mW/cm^2 UVA 30 min, quencher 20 μg/ml",85 % Control
same,Aggregation Response % Control,"platelets; 7.5 mW/cm^2 UVA 30 min, quencher 100 μg/ml",75 % Control
same,Aggregation Response % Control,"platelets; 7.5 mW/cm^2 UVA 60 min, quencher 20 μg/ml",50 % Control
same,Aggregation Response % Control,"platelets; 7.5 mW/cm^2 UVA 60 min, quencher 100 μg/ml",45 % Control
same,Aggregation Response % Control,"platelets; 7.5 mW/cm^2 UVA 90 min, quencher 20 μg/ml",30 % Control
aluminum phthalocyanine tetrasulfonate [AlPcS4],plasma K+,"RBCCs; with γ-irradiation 25 Gy, no rutin",75 mM
same,plasma K+,RBCCs; without γ-irradiation,60 mM
sodium carpryl N-acetyl tryptophan [SCNAT],Virus Kill (log10) M13,bacteriophage M13,1.6 log10
